Measured values reported in ChEMBL document CHEMBL4393691, “Design, synthesis and antitumor evaluation of novel celastrol derivatives” (Eur J Med Chem, 2019).
pIC50: −log10 of the molar value. Active and inactive are the calls of the source. No cut-off for these calls is given here.

Legend:
MCF7 = assay: Antiproliferative activity against human MCF7 cells assessed as reduction in cell viability at 1 uM incubated for 48 hrs by MTT assay relative to control; format: functional; settings: MCF7, 48 h
A549 [1] = assay: Inhibition of Hsp90-Cdc37 interaction in human A549 cells assessed as decrease in Cdc37 protein level at 5 uM incubated for 6 hrs by immunoprecipitation assay; format: cell-based
A549 [2] = assay: Induction of apoptosis in human A549 cells assessed as decrease in Cdk4 expression incubated for 8 hrs by western blot analysis; format: functional, cell-based
A549 [3] = assay: Cell cycle arrest in human A549 cells assessed as accumulation at S phase at 0.06 uM incubated for 12 hrs by propidium iodide staining based flow cytometry analysis (Rvb=38.46%); format: functional
A549 [4] = assay: Cell cycle arrest in human A549 cells assessed as accumulation at G1 phase at 0.18 uM incubated for 12 hrs by propidium iodide staining based flow cytometry analysis (Rvb=49.49%); format: functional
A549 [5] = assay: Cell cycle arrest in human A549 cells assessed as accumulation at G1 phase at 0.27 uM incubated for 12 hrs by propidium iodide staining based flow cytometry analysis (Rvb=49.49%); format: functional
A549 [6] = assay: Cell cycle arrest in human A549 cells assessed as accumulation at G2 phase at 0.06 uM incubated for 24 hrs by propidium iodide staining based flow cytometry analysis (Rvb=18.01%); format: functional
A549 [7] = assay: Cell cycle arrest in human A549 cells assessed as accumulation at S phase at 0.18 uM incubated for 24 hrs by propidium iodide staining based flow cytometry analysis (Rvb=27.61%); format: functional
A549 [8] = assay: Cell cycle arrest in human A549 cells assessed as accumulation at G2 phase at 0.18 uM incubated for 24 hrs by propidium iodide staining based flow cytometry analysis (Rvb=18.01%); format: functional
A549 [9] = assay: Cell cycle arrest in human A549 cells assessed as accumulation at G1 phase at 0.27 uM incubated for 24 hrs by propidium iodide staining based flow cytometry analysis (Rvb=55.3%); format: functional
A549 [10] = assay: Cell cycle arrest in human A549 cells assessed as accumulation at S phase at 0.27 uM incubated for 24 hrs by propidium iodide staining based flow cytometry analysis (Rvb=27.61%); format: functional
A549 [11] = assay: Cell cycle arrest in human A549 cells assessed as accumulation at G2 phase at 0.27 uM incubated for 24 hrs by propidium iodide staining based flow cytometry analysis (Rvb=18.01%); format: functional
A549 [12] = assay: Induction of apoptosis in human A549 cells assessed as increase in cleaved PARP expression at 0.5 to 2 uM incubated for 8 hrs by western blot analysis; format: functional, cell-based
A549 [13] = assay: Induction of apoptosis in human A549 cells assessed as increase in Fas expression at 0.5 to 2 uM incubated for 8 hrs by western blot analysis; format: functional, cell-based
A549 [14] = assay: Induction of apoptosis in human A549 cells assessed as viable cells at 0.2 uM incubated for 24 hrs by AnnexinV-FITC/propidium iodide/propidium iodide staining-based flow cytometric analysis (reference value: 88.1%); format: functional; settings: A549, 24 h, read-out: Activity
A549 [15] = assay: Induction of apoptosis in human A549 cells assessed as early apoptotic cells at 0.2 uM incubated for 24 hrs by AnnexinV-FITC/propidium iodide/propidium iodide staining-based flow cytometric analysis (reference value: 4.1%); format: functional
A549 [16] = assay: Induction of apoptosis in human A549 cells assessed as late apoptotic cells at 0.2 uM incubated for 24 hrs by AnnexinV-FITC/propidium iodide/propidium iodide staining-based flow cytometric analysis (reference value: 4.2%); format: functional
A549 [17] = assay: Induction of apoptosis in human A549 cells assessed as viable cells at 0.4 uM incubated for 24 hrs by AnnexinV-FITC/propidium iodide staining-based flow cytometric analysis (reference value: 88.1%); format: functional; settings: A549, 24 h, read-out: Activity
A549 [18] = assay: Induction of apoptosis in human A549 cells assessed as necrotic cells at 0.4 uM incubated for 24 hrs by AnnexinV-FITC/propidium iodide staining-based flow cytometric analysis (reference value: 3.6%); format: functional
A549 [19] = assay: cells; settings: Homo sapiens, A549, 48 h

What does the source list for `COC(=O)/C=C\c1ccc(OC)c(OCCOC(=O)[C@]2(C)CC[C@]3(C)CC[C@]4(C)C5=CC=C6C(=CC(=O)C(O)=C6C)[C@]5(C)CC[C@@]4(C)[C@@H]3C2)c1`?
inhibition at 1 µM (MCF7): 87.7%; inhibition (A549 [1]): Active; Activity (A549 [2]): Dose-dependent effect; Activity (A549 [3]): 36.32%; Activity (A549 [4]): 56.86%; Activity (A549 [5]): 61%; Activity (A549 [6]): 15.7%; Activity (A549 [7]): 29.7%; Activity (A549 [8]): 10.87%; Activity (A549 [9]): 68.04%; Activity (A549 [10]): 23.55%; Activity (A549 [11]): 9.56%; Activity (A549 [12]): Dose-dependent effect; Activity (A549 [13]): Dose-dependent effect; viability at 0.2 µM (A549 [14]): 77.7%; Activity (A549 [15]): 5.3%; Activity (A549 [16]): 12.7%; viability at 0.4 µM (A549 [17]): 69.9%; Activity (A549 [18]): 3.7%; pIC50 (A549 [19]): 6.82
